Results taken from US6596719B1 (Actelio Pharmaceuticals Ltd., priority 1999, dated 2003).
Like-named read-outs stand apart in the source and are kept apart here.

How the values were obtained:
[1] = biological target: T1, human recombinant ETA receptors (Homo sapiens, UniProt P25101); experiment: Inhibition of endothelin binding to membranes from CHO cells carrying human ET receptors (ETA)
T1 construct: expressed in transfected cells; host or cells: CHO cells (microsomal membranes)
T1 sequence (P25101 21-427): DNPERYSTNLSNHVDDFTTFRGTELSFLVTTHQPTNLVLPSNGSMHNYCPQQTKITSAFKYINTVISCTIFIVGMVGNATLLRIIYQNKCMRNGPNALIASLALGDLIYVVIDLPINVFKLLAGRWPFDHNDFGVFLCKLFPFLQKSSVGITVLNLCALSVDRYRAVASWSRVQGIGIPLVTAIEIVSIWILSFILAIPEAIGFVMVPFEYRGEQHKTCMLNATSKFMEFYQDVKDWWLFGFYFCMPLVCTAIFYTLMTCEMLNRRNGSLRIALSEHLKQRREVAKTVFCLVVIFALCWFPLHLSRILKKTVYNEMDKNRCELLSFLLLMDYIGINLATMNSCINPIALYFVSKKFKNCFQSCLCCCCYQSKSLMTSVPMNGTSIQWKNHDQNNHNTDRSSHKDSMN

[2] = biological target: T2, human recombinant ETB receptors (Homo sapiens, UniProt P24530); experiment: Inhibition of endothelin binding to membranes from CHO cells carrying human ET receptors (ETB)
T2 construct: expressed in transfected cells; host or cells: CHO cells (microsomal membranes)
T2 sequence (P24530 27-442): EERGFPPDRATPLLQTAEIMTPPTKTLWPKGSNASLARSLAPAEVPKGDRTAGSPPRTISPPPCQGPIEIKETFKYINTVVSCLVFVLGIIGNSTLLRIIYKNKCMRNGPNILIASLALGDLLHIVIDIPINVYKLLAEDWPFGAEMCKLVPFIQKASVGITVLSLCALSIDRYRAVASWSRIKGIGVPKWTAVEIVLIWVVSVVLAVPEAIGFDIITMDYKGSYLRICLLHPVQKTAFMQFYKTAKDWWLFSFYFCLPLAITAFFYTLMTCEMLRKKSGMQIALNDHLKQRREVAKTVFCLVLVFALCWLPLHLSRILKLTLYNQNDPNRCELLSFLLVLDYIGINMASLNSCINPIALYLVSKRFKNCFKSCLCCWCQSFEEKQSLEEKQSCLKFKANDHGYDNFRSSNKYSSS
Method: 1) Inhibition of Endothelin Binding to Membranes from CHO Cells Carrying Human ET Receptors:
For competition binding studies, membranes of CHO cells expressing human recombinant ETA or ETB receptors were used. Microsomal membranes from recombinant CHO cells were prepared and the binding assay made as previously described (Breu V., et al, FEBS Lett 1993; 334:210).
The assay was performed in 200 uL 50 mM Tris/HCl buffer, pH 7.4, including 25 mM MnCl2, 1 mM EDTA and 0.5% (w/v) BSA in polypropylene microtiter plates. […]. […] After two h, the membranes were filtered on, filterplates containing GF/C filters (Unifilterplates from Canberra Packard S. A. Zürich, Switzerland). To each well, 50 uL of scintillation cocktail was added (MicroScint 20, Canberra Packard S. A. Zürich, Switzerland) and the filter plates counted in a microplate counter (TopCount, Canberra Packard S. A. Zürich, Switzerland).
All the test compounds were dissolved, diluted and added in DMSO. […] […].

[3] = membranes of CHO cells expressing human recombinant ETA receptors, 8 pM [125I]ET-1, 2 h at 20° C.
[4] = membranes of CHO cells expressing human recombinant ETB receptors, 8 pM [125I]ET-1, 2 h at 20° C.

Compound: COc1ccccc1Oc1c(NS(=O)(=O)c2ccc(C(C)(C)C)cc2)ncnc1OCCNS(=O)(=O)c1ccc(Br)cc1 [Example 27, 4-tert.-butyl-N-{6-[2-(4-bromobenzenesulfonyl-amino)-ethoxy]-5-(o-methoxy-phenoxy)-pyrimidin-4-yl}-benzenesulfonamide]
- IC50 [1]: 3630 nM
- IC50 [2]: 995 nM

Compound: p-methyl-N-[6-(ethoxy-2-benzenesulfonamido)-5-(o-methoxyphenoxy)-2-(4-pyridyl)-4-pyrimidinyl]benzene-sulfonamide [Example 2]
- IC50 [1, 3]: 1960 nM
- IC50 [2, 4]: 1790 nM

Compound: COc1ccccc1Oc1c(NS(=O)(=O)c2ccc(C(C)C)cn2)nc(-c2cc(OC)c(OC)c(OC)c2)nc1OCCNS(=O)(=O)C(C)C [Example 18]
- IC50 [1]: 209 nM
- IC50 [2]: 1050 nM

Compound: CCS(=O)(=O)NCCCOc1nc(C2CC2)nc(NS(=O)(=O)c2ccc(C(C)(C)C)cc2)c1Oc1ccccc1OC [Example 79]
- IC50 [1]: 37 nM
- IC50 [2]: > 10000 nM

Compound: COc1ccccc1Oc1c(NS(=O)(=O)c2ccc(C(C)(C)C)cc2)nc(-c2ccncc2)nc1OCCNS(=O)(=O)c1cccs1 [Example 51, 4-tert.-butyl-N-[6-(2-(thiophene-2-sulfonylamino)-ethoxy)-5-(o-methoxyphenoxy)-2-(4-pyridyl)-4-pyrimidinyl]-benzene-sulfonamide]
- IC50 [1]: 3450 nM
- IC50 [2]: 182 nM

Compound: COc1ccccc1Oc1c(NS(=O)(=O)c2ccc(C(C)C)cn2)nc(-c2ccncc2)nc1OCCNS(=O)(=O)c1cccs1 [Example 71]
- IC50 [1]: 508 nM
- IC50 [2]: 231 nM

Compound: COc1ccccc1Oc1c(NS(=O)(=O)c2ccc(C(C)(C)C)cc2)ncnc1OCCNS(=O)(=O)c1ccc(C)cc1 [Example 28, 4-tert.-butyl-N-{6-[2-(4-methylbenzenesulfonyl-amino)-ethoxy]-5-(o-methoxy-phenoxy)-pydmidin-4-yl}-benzenesulfonamide]
- IC50 [1]: 3710 nM
- IC50 [2]: 1040 nM

Compound: COc1ccccc1Oc1c(NS(=O)(=O)c2ccc(C(C)(C)C)cc2)nc(C2CC2)nc1OCCNS(=O)(=O)c1ccc(C)cc1 [Example 41]
- IC50 [1, 3]: 4900 nM
- IC50 [2, 4]: 299 nM

Compound: CCS(=O)(=O)NCCOc1nc(C2CC2)nc(NS(=O)(=O)c2ccc(C(C)C)cn2)c1Oc1ccccc1OC [Example 43, 5-i-propyl-N-[6-(2-ethanesulfonylamino-ethoxy)-5-(o-methoxyphenoxy)-2-cyclopropyl-pyrimidin-4-yl]-pyridine-2-sulfonamide]
- IC50 [1]: 75 nM
- IC50 [2]: 376 nM

Compound: CCCCS(=O)(=O)NCCOc1nc(C(F)(F)F)nc(NS(=O)(=O)c2ccc(C(C)C)cn2)c1Oc1ccccc1OC [Example 49, 5-i.-propyl-N-[6-(2-butanesulfonylamino-ethoxy)-5-(o-methoxyphenoxy)-2-trifluoromethyl-4-pyrimidinyl]pyridine-2-sulfonamide]
- IC50 [1]: 1030 nM
- IC50 [2]: 274 nM

Compound: CCS(=O)(=O)NCCOc1nc(SC)nc(NS(=O)(=O)c2ccc(C(C)(C)C)cc2)c1Oc1ccccc1OC [Example 36f, 4-tert.-butyl-N-[6-(2-ethanesulfonylamino-ethoxy)-5-(o-methoxyphenoxy)-2-methylsulfanyl-pyrimidin-4-yl]-benzenesulfonamide]
- IC50 [1]: 478 nM
- IC50 [2]: 1210 nM

Compound: CCS(=O)(=O)NCCOc1nc(N2CCN(C)CC2)nc(NS(=O)(=O)c2ccc(C(C)(C)C)cc2)c1Oc1ccccc1OC [Example 82, 4-tert.-butyl-N-[6-(2-ethanesulfonylamino-ethoxy)-2-(N-(N′-methyl)-piperazinyl)-5-(o-methoxyphenoxy)-pyrimidin-4-yl]-benzene-sulfonamide]
- IC50 [1]: 311 nM
- IC50 [2]: 3510 nM

Compound: 5-isopropyl-N-[6-(2-(1-propanesulfonylamino)-ethoxy)-5-(o-methoxyphenoxy)-2-(2-pyridyl)-4-pyrimidinyl]-2-pyridine sulfonamide [Example 72]
- IC50 [1, 3]: 153 nM
- IC50 [2, 4]: 279 nM

Compound: COc1ccccc1Oc1c(NS(=O)(=O)c2ccc(C(C)(C)C)cc2)nc(C2CC2)nc1OCCNS(=O)(=O)C(C)C [Example 40, 4-tert.-butyl-N-[6-(2-(2-propane)-sulfonylamino-ethoxy)-5-(o-methoxyphenoxy)-2-cyclopropyl-pyrimidin-4-yl]-benzene-sulfonamide]
- IC50 [1]: 76 nM
- IC50 [2]: 87 nM

Compound: COc1ccccc1Oc1c(NS(=O)(=O)c2ccc(C(C)C)cn2)nc(C2CC2)nc1OCCNS(=O)(=O)c1ccc(C)cc1 [Example 39, 5-i-propyl-N-[6-(2-(4-methylbenzene)-sulfonylamino-ethoxy)-5-(o-methoxyphenoxy)-2-cyclopropyl-pyrimidin-4-yl]-pyridine-2-sulfonamide]
- IC50 [1, 3]: 1050 nM
- IC50 [2, 4]: 81 nM

Compound: COc1ccccc1Oc1c(NS(=O)(=O)c2ccc(C)cn2)nc(-c2ccncc2)nc1OCCNS(C)(=O)=O [Example 78, 5-methyl-N-[6-(2-(methanesulfonylamino)-ethoxy)-5-(o-methoxyphenoxy)-2-(4-pyridyl)-4-pyrimidinyl]-2-pyridine sulfonamide]
- IC50 [1]: 627 nM
- IC50 [2]: 5460 nM

Compound: COc1ccccc1Oc1c(NS(=O)(=O)c2ccc(C(C)C)cn2)nc(-c2ccncc2)nc1OCCNS(C)(=O)=O [Example 14, 5-i.-propyl-N-[6-(ethoxy-2-methanesulfonamido)-5-(o-methoxyphenoxy)-2-(4-pyridyl)-4-pyrimidinyl]pyridine-2-sulfonamide]
- IC50 [1]: 518 nM
- IC50 [2]: 451 nM

Compound: CCCS(=O)(=O)NCCOc1nc(N2CCOCC2)nc(NS(=O)(=O)c2ccc(C(C)C)cn2)c1Oc1ccccc1OC [Example 46, 5-isopropyl-N-[6-(2-(1-propane)sulfonylamino-ethoxy)-5-(o-methoxyphenoxy)-2-(N-morpholino)-4-pyrimidinyl]-2-pyridine sulfonamide]
- IC50 [1, 3]: 140 nM
- IC50 [2, 4]: 103 nM

Compound: CCS(=O)(=O)NCCOc1nc(-c2ncccn2)nc(NS(=O)(=O)c2ccc(C(C)(C)C)cc2)c1Oc1ccccc1OC [Example 8, p-tert.-butyl-N-[6-(ethoxy-2-ethanesulfonamido)-5-(o-methoxyphenoxy)-2-(2-pyrimidinyl)-4-pyrimidinyl]benzene-sulfonamide]
- IC50 [1, 3]: 160 nM
- IC50 [2, 4]: 130 nM

Compound: COc1ccccc1Oc1c(NS(=O)(=O)c2ccc(C)cn2)nc(N2CCOCC2)nc1OCCNS(=O)(=O)c1ccccc1 [Example 57, 5-methyl-N-[6-(2-(benzenesulfonylamino)-ethoxy)-5-(o-methoxyphenoxy)-2-(N-morpholino)-4-pyrimidinyl]-2-pyridine sulfonamide]
- IC50 [1]: 1620 nM
- IC50 [2]: 208 nM

Compound: CCCCS(=O)(=O)NCCOc1nc(-c2ncccn2)nc(NS(=O)(=O)c2ccc(C(C)(C)C)cc2)c1Oc1ccccc1OC [Example 17, p-tert.-butyl-N-[6-(ethoxy-2-(1-butanesulfonamido))-5-(o-methoxyphenoxy)-2-(2-pyrimidinyl)-4-pyrimidinyl]benzene-sulfonamide]
- IC50 [1]: 1100 nM
- IC50 [2]: 117 nM

Compound: COc1ccccc1Oc1c(NS(=O)(=O)c2ccc(C(C)(C)C)cc2)nc(SC)nc1OCCNS(=O)(=O)c1ccc(C)cc1 [Example 37, 4-tert.-butyl-N-[6-(2-p-toluenesulfonylamino-ethoxy)-5-(o-methoxyphenoxy)-2-methylsulfanyl-pyrimidin-4-yl]-benzenesulfonamide]
- IC50 [1]: 5680 nM
- IC50 [2]: 604 nM

Compound: CCCS(=O)(=O)NCCOc1ncnc(NS(=O)(=O)c2ccc(C(C)(C)C)cc2)c1Oc1ccccc1OC [Example 30, 4-tert.-butyl-N-{6-[2-(1-propanesulfonyl-amino)-ethoxy]-5-(o-methoxy-phenoxy)-pyrimidin-4-yl}-benzenesulfonamide]
- IC50 [1]: 484 nM
- IC50 [2]: 288 nM

Compound: CCS(=O)(=O)NCCOc1nc(-c2ccncc2)nc(NS(=O)(=O)c2ccc(C(C)C)cn2)c1Oc1ccccc1OC [Example 73]
- IC50 [1]: 233 nM
- IC50 [2]: 542 nM

Compound: COc1ccccc1Oc1c(NS(=O)(=O)c2ccc(C(C)C)cn2)nc(C)nc1OCCNS(=O)(=O)c1ccc(C)cc1 [Example 21, 5-i.-propyl-N-[6-(ethoxy-2-p-toluenesulfonamido)-5-(o-methoxyphenoxy)-2-methyl-4-pyrmidinyl]pyridine-2-sulfonamide]
- IC50 [1]: 881 nM
- IC50 [2]: 21.8 nM
